Legend:
Format in all cases: in vivo
Cotton [1] = test: Preemergence Herbicidal Activity, Cotton; conditions: Gossypium hirsutum, pre-emergence; for plant injury at 2000 g/ha: 2.0 kg/ha
Procedure, shortened: (§1)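 Applications are made pre- or postemergence from 50/50 acetone/water solutions of each compound. Effect is recorded as % C at the stated kg/ha rate.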

Soybean [2] = test: Preemergence Herbicidal Activity, Soybean; conditions: Glycine max, pre-emergence; for plant injury at 2000 g/ha: 2.0 kg/ha
Procedure, shortened: (§2)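 Compounds were applied at rates given in kilograms per hectare, and herbicidal effect was scored as percent control.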

Field Corn [3] = test: Preemergence Herbicidal Activity, Field Corn; conditions: Zea mays, pre-emergence; for plant injury at 2000 g/ha: 2.0 kg/ha
Procedure, shortened: as §2

Rice [4] = test: Preemergence Herbicidal Activity, Rice; conditions: Oryza sativa, pre-emergence; for plant injury at 2000 g/ha: 2.0 kg/ha
Procedure, shortened: as §2

Wheat [5] = test: Preemergence Herbicidal Activity, Wheat; conditions: Triticum aestivum, pre-emergence; for plant injury at 2000 g/ha: 2.0 kg/ha
Procedure, shortened: as §2

Field Bindweed [6] = test: Preemergence Herbicidal Activity, Field Bindweed; conditions: pre-emergence; for pest or weed control at 2000 g/ha: 2.0 kg/ha
Procedure, shortened: as §1

Morningglory [7] = test: Preemergence Herbicidal Activity, Morningglory; conditions: Ipomoea, pre-emergence; for pest or weed control at 2000 g/ha: 2.0 kg/ha
Procedure, shortened: as §1

Velvetleaf [8] = test: Preemergence Herbicidal Activity, Velvetleaf; conditions: Abutilon theophrasti, pre-emergence; for pest or weed control at 2000 g/ha: 2.0 kg/ha
Procedure, shortened: as §1

Barnyardgrass [9] = test: Preemergence Herbicidal Activity, Barnyardgrass; conditions: Echinochloa crus-galli, pre-emergence; for pest or weed control at 2000 g/ha: 2.0 kg/ha
Procedure, shortened: (§3)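 Kilogram-per-hectare application rates; outcome scored by percent control of treated plants.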

Green Foxtail [10] = test: Preemergence Herbicidal Activity, Green Foxtail; conditions: Setaria viridis, pre-emergence; for pest or weed control at 2000 g/ha: 2.0 kg/ha
Procedure, shortened: as §3

Johnsongrass [11] = test: Preemergence Herbicidal Activity, Johnsongrass; conditions: Sorghum halepense, pre-emergence; for pest or weed control at 2000 g/ha: 2.0 kg/ha
Procedure, shortened: as §3

Cotton [12] = test: Postemergence Herbicidal Activity, Cotton; conditions: Gossypium hirsutum, post-emergence; for plant injury at 2000 g/ha: 2.0 kg/ha
Procedure, shortened: as §1

Soybean [13] = test: Postemergence Herbicidal Activity, Soybean; conditions: Glycine max, post-emergence; for plant injury at 2000 g/ha: 2.0 kg/ha
Procedure, shortened: as §2

Field Corn [14] = test: Postemergence Herbicidal Activity, Field Corn; conditions: Zea mays, post-emergence; for plant injury at 2000 g/ha: 2.0 kg/ha
Procedure, shortened: as §2

Rice [15] = test: Postemergence Herbicidal Activity, Rice; conditions: Oryza sativa, post-emergence; for plant injury at 2000 g/ha: 2.0 kg/ha
Procedure, shortened: as §2

Wheat [16] = test: Postemergence Herbicidal Activity, Wheat; conditions: Triticum aestivum, post-emergence; for plant injury at 2000 g/ha: 2.0 kg/ha
Procedure, shortened: as §2

Field Bindweed [17] = test: Postemergence Herbicidal Activity, Field Bindweed; conditions: post-emergence; for pest or weed control at 2000 g/ha: 2.0 kg/ha
Procedure, shortened: as §1

Morningglory [18] = test: Postemergence Herbicidal Activity, Morningglory; conditions: Ipomoea, post-emergence; for pest or weed control at 2000 g/ha: 2.0 kg/ha
Procedure, shortened: as §1

Velvetleaf [19] = test: Postemergence Herbicidal Activity, Velvetleaf; conditions: Abutilon theophrasti, post-emergence; for pest or weed control at 2000 g/ha: 2.0 kg/ha
Procedure, shortened: as §1

Barnyardgrass [20] = test: Postemergence Herbicidal Activity, Barnyardgrass; conditions: Echinochloa crus-galli, post-emergence; for pest or weed control at 2000 g/ha: 2.0 kg/ha
Procedure, shortened: as §3

Green Foxtail [21] = test: Postemergence Herbicidal Activity, Green Foxtail; conditions: Setaria viridis, post-emergence; for pest or weed control at 2000 g/ha: 2.0 kg/ha
Procedure, shortened: as §3

Johnsongrass [22] = test: Postemergence Herbicidal Activity, Johnsongrass; conditions: Sorghum halepense, post-emergence; for pest or weed control at 2000 g/ha: 2.0 kg/ha
Procedure, shortened: as §3

Which results are given for CCCn1nnn(-c2cc(NS(=O)(=O)CC)c(Cl)cc2F)c1=O [Compound 51, 1-[4-Chloro-2-fluoro-5-(N--ethylsulfonylamino)phenyl]-4,5-dihydro-4-propyl-5H--tetrazol-5-one]?
plant injury at 2000 g/ha (Cotton [1]): 100%; plant injury at 2000 g/ha (Soybean [2]): 20%; plant injury at 2000 g/ha (Field Corn [3]): 70%; plant injury at 2000 g/ha (Rice [4]): 30%; plant injury at 2000 g/ha (Wheat [5]): 20%; pest or weed control at 2000 g/ha (Field Bindweed [6]): 100%; pest or weed control at 2000 g/ha (Morningglory [7]): 100%; pest or weed control at 2000 g/ha (Velvetleaf [8]): 100%; pest or weed control at 2000 g/ha (Barnyardgrass [9]): 70%; pest or weed control at 2000 g/ha (Green Foxtail [10]): 95%; pest or weed control at 2000 g/ha (Johnsongrass [11]): 10%; plant injury at 2000 g/ha (Cotton [12]): 100%; plant injury at 2000 g/ha (Soybean [13]): 70%; plant injury at 2000 g/ha (Field Corn [14]): 60%; plant injury at 2000 g/ha (Rice [15]): 60%; plant injury at 2000 g/ha (Wheat [16]): 70%; pest or weed control at 2000 g/ha (Field Bindweed [17]): 100%; pest or weed control at 2000 g/ha (Morningglory [18]): 100%; pest or weed control at 2000 g/ha (Velvetleaf [19]): 100%; pest or weed control at 2000 g/ha (Barnyardgrass [20]): 80%; pest or weed control at 2000 g/ha (Green Foxtail [21]): 80%; pest or weed control at 2000 g/ha (Johnsongrass [22]): 70%

What does the source list for CS(=O)(=O)N(c1cc(-n2nnn(CCCF)c2=O)c(Cl)cc1F)S(C)(=O)=O [Compound 36, 1-[2-Chloro-4-fluoro-5-[bis-(N--methylsulfonyl)amino]phenyl]-4,5-dihydro-4-(3-fluoropropyl)-5H--tetrazol-5-one]?
plant injury at 2000 g/ha (Cotton [1]): 70%; plant injury at 2000 g/ha (Soybean [2]): 0%; plant injury at 2000 g/ha (Field Corn [3]): 70%; plant injury at 2000 g/ha (Rice [4]): 0%; plant injury at 2000 g/ha (Wheat [5]): 0%; pest or weed control at 2000 g/ha (Field Bindweed [6]): 100%; pest or weed control at 2000 g/ha (Morningglory [7]): 90%; pest or weed control at 2000 g/ha (Velvetleaf [8]): 95%; pest or weed control at 2000 g/ha (Barnyardgrass [9]): 70%; pest or weed control at 2000 g/ha (Green Foxtail [10]): 50%; pest or weed control at 2000 g/ha (Johnsongrass [11]): 40%; plant injury at 2000 g/ha (Cotton [12]): 70%; plant injury at 2000 g/ha (Soybean [13]): 10%; plant injury at 2000 g/ha (Field Corn [14]): 10%; plant injury at 2000 g/ha (Rice [15]): 10%; plant injury at 2000 g/ha (Wheat [16]): 10%; pest or weed control at 2000 g/ha (Field Bindweed [17]): 60%; pest or weed control at 2000 g/ha (Morningglory [18]): 80%; pest or weed control at 2000 g/ha (Velvetleaf [19]): 90%; pest or weed control at 2000 g/ha (Barnyardgrass [20]): 50%; pest or weed control at 2000 g/ha (Green Foxtail [21]): 50%; pest or weed control at 2000 g/ha (Johnsongrass [22]): 50%

What does the source list for CCS(=O)(=O)N(CC#N)c1cc(-n2nnn(CCCF)c2=O)c(F)cc1Cl [Compound 16]?
plant injury at 500 g/ha (Cotton [1]; 0.5 kg/ha): 100%; plant injury at 500 g/ha (Soybean [2]; 0.5 kg/ha): 80%; plant injury at 500 g/ha (Field Corn [3]; 0.5 kg/ha): 95%; plant injury at 500 g/ha (Rice [4]; 0.5 kg/ha): 70%; plant injury at 500 g/ha (Wheat [5]; 0.5 kg/ha): 60%; pest or weed control at 500 g/ha (Field Bindweed [6]; 0.5 kg/ha): 100%; pest or weed control at 500 g/ha (Morningglory [7]; 0.5 kg/ha): 100%; pest or weed control at 500 g/ha (Velvetleaf [8]; 0.5 kg/ha): 100%; pest or weed control at 500 g/ha (Barnyardgrass [9]; 0.5 kg/ha): 90%; pest or weed control at 500 g/ha (Green Foxtail [10]; 0.5 kg/ha): 100%; pest or weed control at 500 g/ha (Johnsongrass [11]; 0.5 kg/ha): 90%; plant injury at 500 g/ha (Cotton [12]; 0.5 kg/ha): 100%; plant injury at 500 g/ha (Soybean [13]; 0.5 kg/ha): 70%; plant injury at 500 g/ha (Field Corn [14]; 0.5 kg/ha): 50%; plant injury at 500 g/ha (Rice [15]; 0.5 kg/ha): 50%; plant injury at 500 g/ha (Wheat [16]; 0.5 kg/ha): 60%; pest or weed control at 500 g/ha (Field Bindweed [17]; 0.5 kg/ha): 100%; pest or weed control at 500 g/ha (Morningglory [18]; 0.5 kg/ha): 100%; pest or weed control at 500 g/ha (Velvetleaf [19]; 0.5 kg/ha): 100%; pest or weed control at 500 g/ha (Barnyardgrass [20]; 0.5 kg/ha): 50%; pest or weed control at 500 g/ha (Green Foxtail [21]; 0.5 kg/ha): 70%; pest or weed control at 500 g/ha (Johnsongrass [22]; 0.5 kg/ha): 60%
